Values of other authors, collected in patent US20210315194A1, “MOSQUITO ATTRACTANT FORMULATIONS AND USES THEREOF” (ACTIVE SCENT AB, priority 2018, published 2021).

Test system: wild egg-laying Culex mosquitoes
Conditions: traps baited with 1 mg of the compound

## CCCCCCCCC=O [nonanal]
  attraction to baited traps: attract
